# Data reported in patent publication US12121596B2, “Near infrared fluorescent dyes, formulations and related methods” (Washington University, priority 2019, dated 2024).
# Positions of bridges follow the written chain, without caps; N, C: chain ends. Non-standard residues stand in square brackets, D forms with d. Residues, ends and D or L forms follow the SMILES beside them. *: point of attachment. X1 = CC1(C)C(/C=C/C=C/C=C/C=C2/N(CCC(=O)*)c3ccc4ccccc4c3C2(C)C)=[N+](CCC(=O)[O-])c2ccc3ccccc3c21
# What was measured:
# pANXA2 = pANXA2 (Homo sapiens, UniProt P07355); assay: Microscale thermophoresis (MST), pANXA2 binding; conditions: read-out: apparent Kd, pANXA2
# Description: Recombinant proteins and antibodies. Recombinant annexin A2, annexin A2 with glutathione-S-transferase (GST) tag, annexin A1, and annexin A3 proteins were purchased from MyBioSource, Inc. (San Diego, CA, USA). Purified ANXA2 protein and purified pANXA2 protein were gifts from Dr. Gabriel Bimme (Beth Israel Deaconess Medical Center, Boston, MA). Rabbit monoclonal anti-annexin A2 antibody (D11G2, #8235), Rabbit monoclonal anti-Rab5 (C8B1, #3547), and rabbit monoclonal anti-Rab7 (D95F2, #936 7) primary antibodies were purchased from Cell Signaling Technology, Inc. (Danvers, MA, USA). Mouse monoclonal anti-β-actin 2A3 (sc-517582), mouse monoclonal anti-pANXA2 antibody (11.Tyr 24) (sc-135752), rabbit polyclonal anti-NOS2 (C-19, sc-649), rabbit polyclonal anti-ARG1 (H-52, sc-20150) antibodies, and protein A/G agarose were purchased from Santa Cruz Biotechnology, Inc. (Dallas, TX, USA). […]
# MST was performed using the Monolith NT.115 (Nanotemper Technologies, Munich, Germany). […] Fluorescence was assessed in MST-2 buffer (50 mM Tris-HCl, pH 7.4; 150 mM NaCl; 10 mM MgCl2). […] The apparent Kd values were calculated from fragment concentration-dependent changes in normalized fluorescence (Fraction Bound) of LS301 after 5 seconds of thermophoresis based on mass action law using the MO Affinity Analysis v2.3 software.
# [1] = test system: lysates of insulin-stimulated, pANXA2-expressing 4T1 cells; assay: Binding to lysates of insulin-stimulated 4T1 cells; parameters: species or system murine; conditions: read-out: apparent Kd, 4T1 cell lysates
# Experimental: MST was performed using the Monolith NT.115 (Nanotemper Technologies, Munich, Germany). The appropriate agent(s) and LS301 stock samples were denatured in MST-1 buffer (50 mM Tris-HCl, pH 7.4; 150 mM NaCl; 10 mM MgCl2; 2% DMSO; 0.1% Tween-20; 4% SDS, 4 mM dithiothreitol (DTT)) at 97° C. for 10 min. Fluorescence was assessed in MST-2 buffer (50 mM Tris-HCl, pH 7.4; 150 mM NaCl; 10 mM MgCl2). The protein was prepared in MST-2 buffer, and 20 μL serial dilutions were made with protein concentration ranging from 3.05 pM to 50 nM (pANXA2) or 3.81 pM to 62.5 nM (ANXA2). All samples were loaded into NT.115 standard capillaries. The analysis was performed at 37° C., 30% LED power, 60% MST power, and a constant LS301 concentration of 20 nM. The apparent Kd values were calculated from fragment concentration-dependent changes in normalized fluorescence (Fraction Bound) of LS301 after 5 seconds of thermophoresis based on mass action law using the MO Affinity Analysis v2.3 software.
# For Western blot analysis of insulin/PP2-induced change in cellular pANXA2 levels, 4T1 cells were treated with insulin or PP2 as above, lysed, and subjected to SDS-PAGE analysis. […]
# [2] = test system: cells expressing wild-type ANXA2 or mutant ANXA2 (Y23A); assay: LS301 internalization with insulin in cells expressing wild-type or mutant ANXA2 (Y23A); assay type: cell-based
# Experimental: For LS301 cell internalization studies involving insulin treatment, cells were grown on Lab-Tek slides overnight. HEK 293T cells (or in some cases 4T1 cells) were maintained in DMEM medium supplemented with 10% fetal bovine serum and 100 units/mL penicillin. After DNA transfection, the HEK 293TAnxa2-WT-GFP and HEK 293TAnxa2-Y23A-GFP cells were maintained in Dulbecco's Modified Eagle's medium (DMEM) medium with 500 μg/mL G418, 10% fetal bovine serum (FBS), and 100 units/mL penicillin. The medium was changed, and cells were grown in serum-starved conditions overnight. Cells were then cultivated with or without 100 nM insulin for 4 h. Then 1 μM of LS301 was added to each sample to incubated for 4 hours or 24 hours at 37° C. Cells were imaged using an FV1000 confocal microscope, and the mean fluorescence intensities (Ex/Em=488/495 nm; Ex/Em=590/617 nm; Ex/Em=780/805-830 nm) were determined using the FV1000 software.
# [3] = test system: fibroblast co-cultured with ANXA2-positive GFP-expressing 4T1 cells; assay: Fibroblast and 4T1 co-culture uptake; assay type: cell-based
# Experimental: For co-culture experiments on intercellular pANXA2/ANXA2 transfer, fibroblasts (FB) (5×10^4 cells/well) were seeded on a 35-mm glass-bottom Petri dish (MarTek Cor. Ashland, MA, USA) overnight before seeding of 5×10^4 of cancer cells and further culture overnight before the experiment. LS301 (1 μM) was incubated with co-cultures of FB and ANXA2-YFP transfected HL60 cells, co-cultures of FB and wild-type HL60 cells, or co-cultures of FB and 4T1-GFP cells at 37° C. for 3 hours and then washed twice with 0.01 M PBS (pH 7.4). Then, the cells were fixed with 4% paraformaldehyde for 10 minutes.
# pANXA2, sequence (P07355 2-339 limits assumed): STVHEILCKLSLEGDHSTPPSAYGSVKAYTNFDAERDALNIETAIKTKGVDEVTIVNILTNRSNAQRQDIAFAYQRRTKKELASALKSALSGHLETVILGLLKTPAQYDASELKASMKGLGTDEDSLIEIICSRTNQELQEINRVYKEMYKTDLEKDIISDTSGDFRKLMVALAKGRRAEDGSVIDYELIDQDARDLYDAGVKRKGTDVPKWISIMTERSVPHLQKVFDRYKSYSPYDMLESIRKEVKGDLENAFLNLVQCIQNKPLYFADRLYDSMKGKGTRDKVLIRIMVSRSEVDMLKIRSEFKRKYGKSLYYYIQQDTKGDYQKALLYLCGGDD
compound,measurement,setting,value
"CC1(C)C(/C=C/C=C/C=C/C=C2/N(CCC(=O)N[C@@H]3CSSC[C@@H](C(=O)N[C@@H](CCCCN)C(=O)O)NC(=O)[C@@H]4CCCN4C(=O)[C@H](CO)NC(=O)[C@H](CC(=O)O)NC(=O)[C@H](CCCNC(=N)N)NC(=O)CNC3=O)c3ccc4ccccc4c3C2(C)C)=[N+](CCC(=O)[O-])c2ccc3ccccc3c21 [LS301, cypate-cyclic (DCys-Gly-Arg-Asp-Ser-Pro-Cys)-Lys-OH] (X1-[dC]GRDSPCK-OH; disulfide 1-7)",Kd,pANXA2,0.075 ± 0.002 nM
same,Kd,[1],0.017 ± 0.004 nM
same,"cellular uptake of LS301, mutant ANXA2 (Y23A) cells",[2]; insulin stimulation,minimal LS301 uptake
same,"cellular uptake of LS301, wild-type ANXA2 cells",[2]; stimulation with insulin,increased pANXA2 expression and cellular uptake of LS301
same,uptake in co-culture,[3],LS301 uptake by tumor cells and fibroblasts
